Assay results as given in ChEMBL document CHEMBL2146439, “Synthesis and pharmacological evaluation of a novel series of 3-aryl-2-(2-substituted-4-methylthiazole-5-yl)thiazolidin-4-one as possible anti-inflammatory and antimicrobial agents” (2012).
Converted amounts (≈) assume the structure as drawn.

Key:
Type in all cases: functional
[1] = tested on: Rattus norvegicus; test: Antiinflammatory activity in Wistar albino rat assessed as inhibition of carrageenan-induced paw edema at 40 mg/kg, po administered 1 hr prior to carrageenan challenge measured 1 hr post carrageenan challenge relative to control
[2] = tested on: Candida albicans; test: Antifungal activity against Candida albicans ATCC 10231 after 2 days by microdilution broth method; settings: ATCC 10231, 48 h
[3] = tested on: Escherichia coli; test: Antibacterial activity against Escherichia coli ATCC 25922 after 2 days by microdilution broth method; settings: ATCC 25922, 48 h
[4] = tested on: Rattus norvegicus; test: Antiinflammatory activity in Wistar albino rat assessed as inhibition of carrageenan-induced paw edema at 40 mg/kg, po administered 1 hr prior to carrageenan challenge measured 4 hrs post carrageenan challenge relative to control
[5] = tested on: Aspergillus niger; test: Antifungal activity against Aspergillus niger ATCC 9029 after 2 days by microdilution broth method; settings: ATCC 9029, 48 h
[6] = tested on: Rattus norvegicus; test: Antiinflammatory activity in Wistar albino rat assessed as inhibition of carrageenan-induced paw edema at 40 mg/kg, po administered 1 hr prior to carrageenan challenge measured 2 hrs post carrageenan challenge relative to control
[7] = tested on: Staphylococcus aureus; test: Antibacterial activity against Staphylococcus aureus ATCC 25923 after 2 days by microdilution broth method; settings: ATCC 25923, 48 h

Row | Structure (SMILES) | inhibition in vivo at 40 mg/kg [1] [%] | MIC [2] [µM] | MIC [3] [µM] | inhibition in vivo at 40 mg/kg [4] [%] | MIC [5] [µM] | inhibition in vivo at 40 mg/kg [6] [%] | MIC [7] [µM]
1 | Cc1ccc(N2C(=O)CSC2c2sc(-c3ccccc3)nc2C)cc1 (centres undefined) | 58.1 | 30.2 (≈ 11.1 µg/mL) | 60.4 (≈ 22.1 µg/mL) | 80.6 | 30.2 (≈ 11.1 µg/mL) | 60.1 | 121 (≈ 44.3 µg/mL)
2 | COc1ccc(N2C(=O)CSC2c2sc(-c3ccccc3)nc2C)cc1 (centres undefined) | 52.3 | 32.8 (≈ 12.5 µg/mL) | 65.5 (≈ 25.1 µg/mL) | 67.1 | 32.8 (≈ 12.5 µg/mL) | 48.1 | 65.5 (≈ 25.1 µg/mL)
3 | Cc1ccc(N2C(=O)CSC2c2sc(-c3ccc(Cl)cc3)nc2C)cc1 (centres undefined) | 38.3 | 15.6 (≈ 6.25 µg/mL) | 31.2 (≈ 12.5 µg/mL) | 63.9 | 31.2 (≈ 12.5 µg/mL) | 37.6 | 31.2 (≈ 12.5 µg/mL)
4 | COc1ccc(N2C(=O)CSC2c2sc(-c3ccc(Cl)cc3)nc2C)cc1 (centres undefined) | 54 | 30 (≈ 12.5 µg/mL) | 30 (≈ 12.5 µg/mL) | 59.1 | 30 (≈ 12.5 µg/mL) | 80.7 | 30 (≈ 12.5 µg/mL)
5 | Cc1nc(Cc2ccc(Cl)cc2)sc1C1SCC(=O)N1c1ccc(F)c(Cl)c1 (centres undefined) | 40.7 | 27.6 (≈ 12.5 µg/mL) | 55.1 (≈ 25 µg/mL) | 68.9 | 27.6 (≈ 12.5 µg/mL) | 45.1 | 55.1 (≈ 25 µg/mL)
6 | Cc1nc(-c2ccccc2)sc1C1SCC(=O)N1c1ccc(F)cc1 (centres undefined) | 63.9 | 33.7 (≈ 12.5 µg/mL) | 33.7 (≈ 12.5 µg/mL) | 85.3 | 33.7 (≈ 12.5 µg/mL) | 63.4 | 67.5 (≈ 25 µg/mL)
7 | Cc1nc(-c2ccc(Cl)cc2)sc1C1SCC(=O)N1c1ccccc1 (centres undefined) |  | 129 (≈ 50 µg/mL) | 32.3 (≈ 12.5 µg/mL) |  | 129 (≈ 50 µg/mL) |  | 32.3 (≈ 12.5 µg/mL)
8 | OC(Cn1cncn1)(Cn1cncn1)c1ccc(F)cc1F [FLUCONAZOLE] |  | 2.55 (≈ 0.781 µg/mL) |  |  | 5.09 (≈ 1.56 µg/mL) |  | 
9 | Cc1nc(-c2ccc(Cl)cc2)sc1C1SCC(=O)N1c1ccc(F)cc1 (centres undefined) | 63.4 | 30.9 (≈ 12.5 µg/mL) | 15.4 (≈ 6.25 µg/mL) | 67.6 | 61.7 (≈ 25 µg/mL) | 63.9 | 30.9 (≈ 12.5 µg/mL)
10 | Cc1nc(-c2ccc(Cl)cc2)sc1C1SCC(=O)N1c1ccc(Cl)cc1 (centres undefined) | 69.3 | 119 (≈ 50 µg/mL) | 29.7 (≈ 12.5 µg/mL) | 43.1 | 119 (≈ 50 µg/mL) | 45.7 | 59.3 (≈ 25 µg/mL)
11 | Cc1nc(Cc2ccc(Cl)cc2)sc1C1SCC(=O)N1c1ccc(Cl)cc1 (centres undefined) | 48.9 | 28.7 (≈ 12.5 µg/mL) | 57.4 (≈ 25 µg/mL) | 53.9 | 28.7 (≈ 12.5 µg/mL) | 40.1 | 28.7 (≈ 12.5 µg/mL)
